Source: patent US20020026053A1, “Novel 3-(substituted) -2- indolinones compounds and use thereof as inhibitors of protein kinase activity” (priority 1997, published 2002)

Assays:
FLK-1 receptor = assay: FLK-1 Assay (cellular/catalytic ELISA, VEGF-stimulated phosphotyrosine); assay type: cell-based; set-up: concentration or dose not given beside the values
In short: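 NIH3T3 C7#3 cells engineered to express Flk-1 were serum-starved overnight (0.1% FBS), then exposed to compound for 2 h at 37 °C (final dilution 1:200, 0.5% DMSO) before VEGF stimulation. Lysates captured on anti-FLK-1 antiserum plates; phosphotyrosine detected by UB40 antibody/POD-ABTS ELISA versus untreated controls.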

PDGF-R = PDGF-R Assay (cellular ELISA, U1242 cells); assay type: cell-based; set-up: concentration or dose not given beside the values
In short: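 U1242 cells seeded in 0.5% serum, serum-starved, then exposed to compound for 2 hr at 37°C before 5–10 min ligand stimulation and lysis in HNTG. Lysate captured on receptor-antibody-coated plates; phosphotyrosine detected with polyclonal anti-pTyr, goat anti-rabbit IgG and ABTS/H2O2, A410 (ref 630 nm), versus untreated cells.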

Row | Structure (SMILES) | Flk Kinase % Inhibition (P.110) (FLK-1 receptor) | PDGF Kinase % Inhibition (P.119) (PDGF-R)
1 | Cc1c(Br)cc(Br)c2c1C(=Cc1ccc(O)cc1)C(=O)N2 [10719/H07] | 2.4% | 
2 | Cc1c(Br)cc(Br)c2c1C(=Cc1ccc(N(C)C)cc1)C(=O)N2 [10719/H08] | 11.6% | 
3 | Cc1c(Br)cc(Br)c2c1C(=Cc1ccc(F)cc1Cl)C(=O)N2 [10719/H09] | 2.5% | 
4 | Cc1c(Br)cc(Br)c2c1C(=Cc1cccc([N+](=O)[O-])c1)C(=O)N2 [10719/H10] | −0.7% | 
5 | Cc1c(Br)cc(Br)c2c1C(=Cc1ccc(F)cc1C(F)(F)F)C(=O)N2 [10719/H11] | 12.3% | 
6 | Cc1c(Br)cc(Br)c2c1C(=Cc1c(F)cc(F)cc1F)C(=O)N2 [10720/H02] | 9.7% | 
7 | COc1cc(O)ccc1C=C1C(=O)Nc2c(Br)cc(Br)c(C)c21 [10720/H03] | 1.8% | 
8 | N#Cc1ccccc1C=C1C(=O)Nc2ccc(CCCl)cc21 [10735/G07] | 17.6% | 12.6%
9 | O=C1Nc2ccc(CCCl)cc2C1=Cc1c(F)cccc1F [10735/G08] | 10.9% | 9.8%
10 | O=C1Nc2ccc(CCCl)cc2C1=Cc1cccc2ccccc12 [10735/G09] | 15.9% | 2.2%
11 | O=C1Nc2ccc(CCCl)cc2C1=Cc1ccc(Cl)cc1Cl [10735/G10] | 6.8% | −8.8%
12 | O=C1Nc2ccc(CCCl)cc2C1=Cc1ccc(-c2ccccc2)cc1 [10735/G11] | 10.1% | −5.3%
13 | Cc1ccccc1C=C1C(=O)Nc2c(Br)cc(Br)c(C)c21 [10735/H02] | 14.5% | −4.7%
14 | Cc1c(Br)cc(Br)c2c1C(=Cc1ccc(F)c(F)c1)C(=O)N2 [10735/H03] | 7.4% | 1.2%
15 | Cc1c(Br)cc(Br)c2c1C(=Cc1cc(F)cc(F)c1)C(=O)N2 [10735/H04] | 12.8% | 1.2%
16 | Cc1c(Br)cc(Br)c2c1C(=Cc1cccc(C(F)(F)F)c1)C(=O)N2 [10735/H05] | 29.5% | 9.1%
17 | Cc1c(Br)cc(Br)c2c1C(=Cc1cc(C(F)(F)F)cc(C(F)(F)F)c1)C(=O)N2 [10735/H06] | 25.9% | 6.4%
18 | Cc1c(Br)cc(Br)c2c1C(=Cc1ccccc1C#N)C(=O)N2 [10735/H07] | 21.4% | −0.9%
19 | Cc1c(Br)cc(Br)c2c1C(=Cc1c(F)cccc1F)C(=O)N2 [10735/H08] | 29.1% | −2.6%
20 | Cc1c(Br)cc(Br)c2c1C(=Cc1cccc3ccccc13)C(=O)N2 [10735/H09] | 20.6% | 6.4%
21 | Cc1c(Br)cc(Br)c2c1C(=Cc1ccc(Cl)cc1Cl)C(=O)N2 [10735/H10] | 24.0% | −0.2%
22 | Cc1c(Br)cc(Br)c2c1C(=Cc1ccc(-c3ccccc3)cc1)C(=O)N2 [10735/H11] | 28.3% | 1.9%
23 | O=C1Nc2c(Br)cc(Br)cc2C1=Cc1ccc(Cl)cc1 [10736/A02] | −6.0% | 24.2%
24 | O=C1Nc2c(Br)cc(Br)cc2C1=Cc1ccccc1C(F)(F)F [10736/A03] | 5.7% | 31.6%
25 | Cc1cccc(C=C2C(=O)Nc3c(Br)cc(Br)cc32)c1 [10736/A04] | −13.0% | 13.2%
26 | Cc1ccc(C=C2C(=O)Nc3c(Br)cc(Br)cc32)cc1 [10736/A05] | −19.4% | 8.4%
27 | O=C1Nc2c(Br)cc(Br)cc2C1=Cc1cccc(Cl)c1 [10736/A06] | −18.2% | 32.1%
28 | O=C1Nc2c(Br)cc(Br)cc2C1=Cc1cccc(F)c1 [10736/A07] | −12.6% | 8.4%

Row | Structure (SMILES) | Flk Kinase % Inhibition (P.110) (FLK-1 receptor) | PDGF Kinase % Inhibition (P.119) (PDGF-R)
29 | O=C1Nc2c(Br)cc(Br)cc2C1=Cc1ccccc1F [10736/A08] | −13.4% | 11.0%
30 | CCc1ccc(C=C2C(=O)Nc3c(Br)cc(Br)cc32)cc1 [10736/A09] | −8.7% | −6.5%
31 | COc1cccc(C=C2C(=O)Nc3c(Br)cc(Br)cc32)c1 [10736/A10] | −11.0% | 5.8%
32 | O=C1Nc2c(Br)cc(Br)cc2C1=Cc1ccccc1Cl [10736/A11] | −12.4% | −5.6%
33 | O=C1Nc2ccc(I)cc2C1=Cc1ccc(Cl)cc1 [10736/B02] | 1.0% | −10.0%
34 | O=C1Nc2ccc(I)cc2C1=Cc1ccccc1C(F)(F)F [10736/B03] | 11.3% | 63.2%
35 | Cc1cccc(C=C2C(=O)Nc3ccc(I)cc32)c1 [10736/B04] | 3.0% | 11.9%
36 | Cc1ccc(C=C2C(=O)Nc3ccc(I)cc32)cc1 [10736/B05] | −0.5% | −3.0%
37 | O=C1Nc2ccc(I)cc2C1=Cc1cccc(Cl)c1 [10736/B06] | 3.8% | 20.7%
38 | O=C1Nc2ccc(I)cc2C1=Cc1cccc(F)c1 [10736/B07] | 4.0% | 20.7%
39 | O=C1Nc2ccc(I)cc2C1=Cc1ccccc1F [10736/B08] | 5.0% | −0.4%
40 | CCc1ccc(C=C2C(=O)Nc3ccc(I)cc32)cc1 [10736/B09] | 8.0% | 7.1%
41 | COc1cccc(C=C2C(=O)Nc3ccc(I)cc32)c1 [10736/B10] | 2.5% | 1.8%
42 | O=C1Nc2ccc(I)cc2C1=Cc1ccccc1Cl [10736/B11] | 7.3% | −15.3%
43 | Cc1c(Br)ccc2c1C(=Cc1ccc(Cl)cc1)C(=O)N2 [10736/C02] | −0.9% | 2.7%
44 | Cc1c(Br)ccc2c1C(=Cc1ccccc1C(F)(F)F)C(=O)N2 [10736/C03] | 6.5% | 25.5%
45 | Cc1cccc(C=C2C(=O)Nc3ccc(Br)c(C)c32)c1 [10736/C04] | 2.8% | 8.4%
46 | Cc1ccc(C=C2C(=O)Nc3ccc(Br)c(C)c32)cc1 [10736/C05] | 4.6% | 16.7%
47 | Cc1c(Br)ccc2c1C(=Cc1cccc(Cl)c1)C(=O)N2 [10736/C06] | 6.2% | 26.4%
48 | Cc1c(Br)ccc2c1C(=Cc1cccc(F)c1)C(=O)N2 [10736/C07] | 4.4% | 14.1%
49 | Cc1c(Br)ccc2c1C(=Cc1ccccc1F)C(=O)N2 [10736/C08] | 3.1% | 1.4%
50 | CCc1ccc(C=C2C(=O)Nc3ccc(Br)c(C)c32)cc1 [10736/C09] | 11.2% | −9.6%
51 | COc1cccc(C=C2C(=O)Nc3ccc(Br)c(C)c32)c1 [10736/C10] | 1.1% | 1.4%
52 | Cc1c(Br)ccc2c1C(=Cc1ccccc1Cl)C(=O)N2 [10736/C11] | 7.2% | 0.5%
53 | CNS(=O)(=O)c1ccc2c(c1)C(=Cc1ccc(Cl)cc1)C(=O)N2 [10736/D02] | 5.8% | −10.5%
54 | CNS(=O)(=O)c1ccc2c(c1)C(=Cc1ccccc1C(F)(F)F)C(=O)N2 [10736/D03] | 5.4% | 14.5%
55 | CNS(=O)(=O)c1ccc2c(c1)C(=Cc1cccc(C)c1)C(=O)N2 [10736/D04] | 4.3% | 15.0%
